Reference: ChEMBL document CHEMBL3045803, “Preparation and root growth-inhibitory activity of N-substituted 2-(2-chloroacetamido)-3-(furan-2-yl)propanamides” (2005)

Tested on: Brassica rapa subsp. oleifera
Test: Inhibition of Brassica rapa subsp. oleifera root growth assessed as reduction of root length at 5 x 10^-5 M after 7 days by germination assay relative to control
Assay type: functional
Conditions: 168 h

Compound	inhibition at 50 µM
Cc1cnc(NC(=O)C(Cc2ccco2)NC(=O)CCl)s1 (centres undefined)	20%
O=C(CCl)NC(Cc1ccco1)C(=O)Nc1nc2ccccc2s1 (centres undefined)	58%
O=C(CCl)NC(Cc1ccco1)C(=O)Nc1nc2c(Cl)cccc2s1 (centres undefined)	42%
CCOc1ccc2nc(NC(=O)C(Cc3ccco3)NC(=O)CCl)sc2c1 (centres undefined)	34%
O=C(CCl)NC(Cc1ccco1)C(=O)Nc1ccccc1 (centres undefined)	52%
O=C(CCl)NC(Cc1ccco1)C(=O)Nc1cccc(F)c1 (centres undefined)	33%
O=C(CCl)NC(Cc1ccco1)C(=O)Nc1ccc(F)cc1 (centres undefined)	37%
O=C(CCl)NC(Cc1ccco1)C(=O)Nc1cccc(Cl)c1 (centres undefined)	30%
O=C(CCl)NC(Cc1ccco1)C(=O)Nc1ccc(Cl)cc1 (centres undefined)	19%
O=C(CCl)NC(Cc1ccco1)C(=O)Nc1cccc(Br)c1 (centres undefined)	42%
O=C(CCl)NC(Cc1ccco1)C(=O)Nc1ccc(Br)cc1 (centres undefined)	29%
CCc1ccccc1NC(=O)C(Cc1ccco1)NC(=O)CCl (centres undefined)	20%
CCc1cccc(NC(=O)C(Cc2ccco2)NC(=O)CCl)c1 (centres undefined)	35%
CCc1ccc(NC(=O)C(Cc2ccco2)NC(=O)CCl)cc1 (centres undefined)	41%
CCc1cccc(CC)c1NC(=O)C(Cc1ccco1)NC(=O)CCl (centres undefined)	76%
CCc1cccc(C)c1NC(=O)C(Cc1ccco1)NC(=O)CCl (centres undefined)	67%
Cc1cccc(C)c1NC(=O)C(Cc1ccco1)NC(=O)CCl (centres undefined)	62%
O=C(CCl)NC(Cc1ccco1)C(=O)Nc1nccs1 (centres undefined)	57%
O=C(CCl)NC(Cc1ccco1)C(=O)Nc1ncc(Br)s1 (centres undefined)	69%
O=C(CCl)NC(Cc1ccco1)C(=O)Nc1ncc([N+](=O)[O-])s1 (centres undefined)	37%
Cc1csc(NC(=O)C(Cc2ccco2)NC(=O)CCl)n1 (centres undefined)	56%
Cc1nc(NC(=O)C(Cc2ccco2)NC(=O)CCl)sc1C (centres undefined)	25%
O=C(CCl)NC(Cc1ccco1)C(=O)Nc1nc(-c2ccc(Cl)cc2)cs1 (centres undefined)	52%
O=C(O)COc1ccc(Cl)cc1Cl [2,4-DICHLOROPHENOXYACETIC ACID]	97%
